From doi:10.1101/2025.07.05.663305v1, “Structure of Photosystem I with SOD reveals coupling between energy conversion and oxidative stress protection” (biorxiv, 2025)

Target: T1, FCPb (Chromera velia, UniProt A0A0G4ID45)
T1 construct: gene Cvel_13255; native PSI-SOD-FCPI supercomplex purified from cells; contacts PsaD, PsaL, PsaA2 and SOD1
T1 sequence (A0A0G4ID45 1-293): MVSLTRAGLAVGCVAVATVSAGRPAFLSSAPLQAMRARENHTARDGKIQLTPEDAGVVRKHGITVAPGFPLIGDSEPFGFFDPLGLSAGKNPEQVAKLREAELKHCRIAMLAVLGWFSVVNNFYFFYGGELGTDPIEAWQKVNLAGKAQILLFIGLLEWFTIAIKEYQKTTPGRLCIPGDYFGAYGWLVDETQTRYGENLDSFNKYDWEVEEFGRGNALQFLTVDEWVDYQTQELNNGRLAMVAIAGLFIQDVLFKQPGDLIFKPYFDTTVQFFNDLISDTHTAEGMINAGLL
Experiment: cryo-EM structure
Format: binding
Settings: four sites 301, 302, 303, 305

CC(/C=C/C=C(C)/C=C/[C@@]12O[C@]1(C)C[C@@H](O)CC2(C)C)=C\C=C\C=C(C)\C=C\C=C(C)\C=C\[C@@]12O[C@]1(C)C[C@@H](O)CC2(C)C [violaxanthin]
cryo-EM structure: FCPb binds ten Chls a and four violaxanthins
